The source of these data is US20230355644A1, “ACTIVE INGREDIENTS AND DRUGS FOR THE THERAPY OF VIRAL DISEASES, ESPECIALLY CORONA INFECTIONS, ESPECIALLY COVID-19” (Creative Therapeutics GmbH, priority 2020, published 2023).

Like-named read-outs stand apart in the source and are kept apart here.

One assay relates to COVID-19. Conditions: in vivo; cited from earlier work.
Assay [1] has as its system UWB1,289 ovarian cancer cells. The assay is described as follows: whole transcriptome sequencing (RNA-Seq) of treated ovarian cancer cells. The class given is cell-based. Conditions: 24 hours; for CDKN1A transcription / DNA repair systems (MMR, BER, NER, ATM/ATR, HR) down-regulated at the transcription level / changes in the transcriptome versus non-treated controls (PCA plot, number of differentially transcribed genes) / expression of CDK family genes / CDK proteins / expression of DNA repair enzymes / transcripts of DNA repair systems: 1,000 μM compound (IV-A3) or 40 μM compound (III-A).

A further assay relates to HI-viruses. The assay can be described thus: EASY-HIT assay. It is filed as cell-based.
Assay [2] deals with SARS-CoV-2. The assay is described as follows: therapeutic effect against SARS-CoV-2 infection in mouse model. The class given is in vivo. Conditions: K18-hACE2 transgenic mice; intra-peritoneal 150 mg/kg 30 minutes before and 500 mg/kg three hours after infection; two days post infection. The protocol:
Studies of the Therapeutic Effect in the Mouse Model • To investigate the therapeutic effect of compound (VI-A) against SARS-CoV-2 infection in mouse model, K18-hACE2 transgenic mice were used. The viruses used were a German isolate of SARS-CoV-2. The study was conducted as a feasibility study with two groups (test group, control group) based on six mice each, i.e. a total of 12 animals. The two groups of mice were mildly anesthetized by inhalation of 3% isoflurane and intranasally inoculated with 300 KWSIU (FFU) of SARS-CoV-2. Treatment with the compound (VI-A) was performed by intra-peritoneal injection or application. Treatment of the first group began 30 minutes before infection with a compound concentration or dosage of 150 mg/kg. In addition, three hours after infection, the test mice were administered another 500 mg/kg of the compound (dissolved in 100 μl total volume of simply concentrated PBS buffer with pH 7.4). In the second group (positive control or control group), the mice were infected equally but treated with PBS buffer alone without the addition of diphenyl derivatives or triazenes (sham treatment). Two days post infection, the animals were euthanized. The clinical score (“clinical score”), comprising the recording of weight and clinical signs, of the animals was determined. To determine the success of therapy, the viral load in the lungs was determined by qPCR.

For assay [3], the system named is SARS-CoV-2. The class given is cell-based. Conditions: Caco-2 cells; for decrease in viral load versus untreated cells (100%): strongest dilution 1/4000 (25 μg/ml).
Assay [4] concerns SARS-CoV-2. The class given is cell-based. Conditions: Vero-E6 cells; dilutions 1/4000 to 1/500; FIGS. 3A and 3B.
[5] abbreviates: dilutions 1/4000 to 1/500, FIGS. 2A and 2B.

Regarding `CCN(CC)CCCC(C)Nc1ccnc2cc(Cl)ccc12` (stereo not drawn) [Chloroquine], the “efficacy in COVID-19” value with COVID-19 was “no evidence of efficacy”.
On to `CN(C)/N=N/c1ccc(C(=O)c2ccc(O)cc2)cc1` [compound (III-A)], for which, in assay [1], the CDKN1A transcription entry was “consistent upregulation”; the “DNA repair systems (MMR, BER, NER, ATM/ATR, HR) down-regulated at the transcription level” value is −1.09 log 2FC; the “changes in the transcriptome versus non-treated controls (PCA plot, number of differentially transcribed genes)” value is “sufficient change in the transcriptome”; the “expression of CDK family genes / CDK proteins” value is reported as “downregulation”. In addition, the “expression of DNA repair enzymes / transcripts of DNA repair systems” value in assay [1] was “downregulation”.
Turning to `CN(C)N=Nc1ccc(C(=O)c2ccc(OS(=O)(=O)[O-])cc2)cc1.[Na+]` [compound (IV-A3)], in assay [1], the CDKN1A transcription result is listed as “strongly induced”; the “DNA repair systems (MMR, BER, NER, ATM/ATR, HR) down-regulated at the transcription level” value is −1.09 log 2FC; the “changes in the transcriptome versus non-treated controls (PCA plot, number of differentially transcribed genes)” value is on record as “more pronounced changes in the transcriptome than compound (III-A)”; the “expression of CDK family genes / CDK proteins” value is listed as “marked down regulation”. Moreover, in assay [1], the “expression of DNA repair enzymes / transcripts of DNA repair systems” value is listed as “extensive downregulation”. In addition, the “induction of CDKN1A” value in assay [1] (1,000 μM compound (IV-A3), genes differentially expressed in both UWB1,289 cell lines) was 4.49 log 2FC. In assay [1] (1,000 μM), the “expression of cadherin cell adhesion molecule genes, particularly CDH6” value is on record as “downregulated”. Besides, the “expression of DNA dealkylation pathway proteins (APEX1, TET1, ALKBH2)” value in assay [1] (1,000 μM, both cell lines) was “consistently downregulated”.
For the compound `CN(C)/N=N/c1ccc(C(=O)c2ccc(OS(=O)(=O)O)cc2)cc1` [compound (IV-A)], the “inhibitory effect on HI-viruses” value in the assay on HI-viruses is “first inhibitory effect”. Besides, in the assay on SARS-CoV-2 [2], the “viral load in the lungs by qPCR versus positive control group” value is reported as “significantly reduced viral load in the lungs”.
`CN(C)/N=N/c1ccc(C(=O)c2ccc(O)cc2)cc1` [compound (IV-B)]: in the assay on HI-viruses, the “inhibitory effect on HI-viruses” value is reported as “first inhibitory effect”. Further, the “decrease in viral load in treated versus untreated cells” value was “Particularly good results” with SARS-CoV-2 [3] (setting [5]) and “significant decrease in viral load” with SARS-CoV-2 [4]. The “decrease in viral load versus untreated cells (100%)” value is recorded as 50% in the assay with SARS-CoV-2 [3] (FIG. 2A) and 40% in the assay with SARS-CoV-2 [3] (FIG. 2B). For the same compound, the “viral load in the lungs by qPCR versus positive control group” value in the assay with SARS-CoV-2 [2] is given as “significantly reduced viral load in the lungs”.
`CN(C)/N=N/c1ccc(C(=O)c2ccc(OCCC(=O)NCC(=O)O)cc2)cc1` [compound (VI-A)]: in the assay on HI-viruses, the “inhibitory effect on HI-viruses” value is recorded as “first inhibitory effect”. In addition, in the assay with SARS-CoV-2 [2], the “histological examination of the lung tissue versus control group” value is “significantly reduced incidence of infection” and the “viral load in the lungs by qPCR versus positive control group” value is given as “significantly lower”. The “decrease in viral load in treated versus untreated cells” value in the assay with SARS-CoV-2 [4] is listed as “significant decrease in viral load”.
Take `CN(C)/N=N/c1ccc(C(=O)c2ccc(OCCC(=O)O)cc2)cc1` [compound (VIII-A)]: in the assay with HI-viruses, the “inhibitory effect on HI-viruses” value is on record as “first inhibitory effect”. Besides, the “decrease in viral load in treated versus untreated cells” value with SARS-CoV-2 [3] (dilution of 1/500 (1000 μg/ml)) is reported as “best results in terms of viral load decrease”; in the assay with SARS-CoV-2 [3] (setting [5]), “Particularly good results”; in the assay on SARS-CoV-2 [4] it was “greatest decrease in viral load”. Also, the “viral load in the lungs by qPCR versus positive control group” value in the assay with SARS-CoV-2 [2] is given as “significantly reduced viral load in the lungs”.
On to `CCN(CCO)CCCC(C)Nc1ccnc2cc(Cl)ccc12` (stereo not drawn) [hydroxychloroquine], for which the “efficacy in COVID-19” value in the assay on COVID-19 is “no evidence of efficacy”.
Turning to “Tocilizumab: monoclonal antibody approved for the treatment of various forms of rheumatoid arthritis and cytokine release syndrome”, the “efficacy in COVID-19” value in the assay with COVID-19 was “ineffective”.
